Reference: publication PMC6792352, “Limited Chemical Structural Diversity Found to Modulate Thyroid Hormone Receptor in the Tox21 Chemical Library” (Environmental Health Perspectives, 2019)
Where a name gives a salt, the structure may show the parent alone. Positions of bridges follow the written chain, without caps; N, C: chain ends. Residues, ends and D or L forms follow the SMILES beside them.

Experiment: in vitro
Details: rat, gh3-tre-luc cells, AC50 (uM) modified / 1000

SMILES	CC50 at 24 h
CC1CCC(=O)C1=O (centres unmarked) [3-Methyl-1,2-cyclopentanedione]	> 100 µM
CCCCN(CCO)CCO [N-Butyldiethanolamine]	> 90 µM
CCCn1c(=O)[nH]c(=O)c2[nH]cnc21 [Enprofylline]	> 50 µM
CCCCCCCCCCCCN1CCOCC1 [4-Dodecylmorpholine]	> 90 µM
C[C@]12CC[C@@H]3c4ccc(O)cc4CC[C@H]3[C@@H]1CC[C@@H]2O [17beta-Estradiol]	> 90 µM
COc1cc(C(=O)NCCCCCC(=O)O)cc(OC)c1OC [Capobenic acid]	> 50 µM
COc1cc([C@@H]2c3cc4c(cc3[C@@H](O[C@@H]3O[C@@H]5CO[C@@H](c6cccs6)O[C@H]5[C@H](O)[C@H]3O)[C@H]3COC(=O)[C@H]23)OCO4)cc(OC)c1O [Teniposide]	4.5 µM
CN(C(=O)CCCOc1ccc2[nH]c(=O)ccc2c1)C1CCCCC1 [Cilostamide]	> 50 µM
NCCCC[C@H](NC(=O)[C@@H]1CCCN1C(=O)[C@@H]1CSSC[C@H](N)C(=O)N[C@@H](Cc2ccccc2)C(=O)N[C@@H](Cc2ccccc2)C(=O)N[C@@H](CCC(N)=O)C(=O)N[C@@H](CC(N)=O)C(=O)N1)C(=O)NCC(N)=O [Felypressin] (H-CFFQNCPKG-NH2; disulfide 1-6)	> 50 µM
CCCCC/C=C\C/C=C\CCCCCCCC(=O)NC(C)c1ccccc1 (centres unmarked) [Melinamide]	> 50 µM
c1ccc2sc(SN(C3CCCCC3)C3CCCCC3)nc2c1 [N,N-Dicyclohexyl-2-benzothiazolesulfenamide]	> 100 µM
OCC1(O)OC[C@@H](O)[C@@H](O)[C@@H]1O (stereo partly drawn) [D-Fructose]	> 50 µM
[O-][n+]1cccc(CO)c1 [Mepiroxol]	> 50 µM
CCn1nc(C(=O)O)c(=O)c2cc3c(cc21)OCO3 [Cinoxacin]	> 20 µM
CC(C)CC(O)Cc1ccccc1 (centres unmarked) [4-Methyl-1-phenyl-2-pentanol]	> 90 µM
COc1ccc(-c2cc(C(F)F)nn2-c2ccc(S(N)(=O)=O)cc2)cc1F [Deracoxib]	> 50 µM
O=C1c2ccccc2C(=O)C1c1ccc(Br)cc1 [Bromindione]	> 50 µM
COc1cc(C)ccc1C(C)C [2-Methoxy-4-methyl-1-(propan-2-yl)benzene]	> 90 µM
CC[C@H]1OC(=O)[C@H](C)C(=O)[C@H](C)[C@@H](O[C@@H]2O[C@H](C)C[C@H](N(C)C)[C@H]2O)[C@](C)(OC)C[C@@H](C)C(=O)[C@H](C)[C@H]2N(CCCCn3cnc(-c4cccnc4)c3)C(=O)O[C@]12C [Telithromycin]	> 50 µM
CN(C)CCN(C)CCO [2-{[2-(Dimethylamino)ethyl](methyl)amino}ethanol]	> 90 µM
CC1=Nc2ccc3ccccc3c2C1(C)C [1,1,2-Trimethyl-1H-benzo[e]indole]	> 90 µM
CCCCNC(=O)n1c(NC(=O)OC)nc2ccccc21 [Benomyl]	> 90 µM
O=C(O)/C=C/c1ccc(/C=C/C(=O)O)cc1 [3,3'-(1,4-Phenylene)bis-2-propenoic acid]	> 50 µM
Cc1cc(Nc2ccccc2C(=O)O)ccc1Cl [2-[(4-Chloro-3-methylphenyl)amino]benzoic acid]	> 50 µM
O=C1OC(=O)c2cccc3cccc1c23 [1H,3H-Naphtho(1,8-cd)pyran-1,3-dione]	> 90 µM
COc1ccc(C)cc1 [1-Methoxy-4-methylbenzene]	> 90 µM

SMILES	CC50 at 24 h
CN(C)c1ccncc1 [N,N-dimethylpyridin-4-amine]	> 90 µM
CCc1cccc(CC)c1NC(=O)CN(CC(=O)O)CC(=O)O [Etifenin]	> 20 µM
Cn1c(=O)c2c(ncn2CC(O)CO)n(C)c1=O (centres unmarked) [Dyphylline]	> 20 µM
CCN(CC)CCn1c(=O)c(Cc2ccc(OC)cc2)nc2ccccc21 [Caroverine hydrochloride]	19.1 µM
CC(=O)c1ccc[nH]1 [2-Acetylpyrrole]	> 90 µM
O=C(O)CNC(=O)c1ccc([N+](=O)[O-])cc1 [4-Nitrohippuric acid]	> 90 µM
CCCCOCCOCCOC(C)=O [2-(2-Butoxyethoxy)ethyl acetate]	> 90 µM
CCOc1ccc2nc3cc(N)ccc3c(N)c2c1 [Ethacridine lactate hydrate]	> 50 µM
CC(C)(C)NC(N)=O [(1,1-Dimethylethyl)urea]	> 90 µM
CC(C)=CCC/C(C)=C/C=N/O [Citral oxime]	> 90 µM
COC(C(=O)O)c1ccccc1 (centres unmarked) [Methoxyphenylacetic acid]	> 90 µM
CC/C=C\CCOC(=O)CCCCC [(3Z)-Hex-3-en-1-yl hexanoate]	> 90 µM
Oc1cc(Cl)cc(Cl)c1Cl [2,3,5-Trichlorophenol]	> 90 µM
CN(C)C(=O)Nc1cccc(C(F)(F)F)c1 [Fluometuron]	> 90 µM
CCC(C(=O)OCCN(CC)CC)c1ccccc1 (centres unmarked) [Butetamate]	> 50 µM
COCC(=O)O [Methoxyacetic acid]	> 90 µM
CCCCCCCCCCCC(=O)N(CC)CC [N,N-Diethyldodecanamide]	> 90 µM
c1ccc2ncccc2c1 [Quinoline]	> 90 µM
NC[C@H]1CC[C@H](C(=O)Oc2ccc(CCC(=O)O)cc2)CC1 [Cetraxate hydrochloride]	> 50 µM
CC(=O)OC(OC(C)=O)c1ccc([N+](=O)[O-])o1 [5-Nitro-2-furanmethanediol diacetate]	14 µM
CC(C)=CCC/C(C)=C/COC=O [(2E)-3,7-Dimethylocta-2,6-dien-1-yl formate]	> 90 µM
NC(=O)N(O)[C@@H]1C=C[C@H](Oc2cccc(Oc3ccc(F)cc3)c2)C1 [CJ-013790]	> 90 µM
CCCCc1ccc(Cl)cc1 [4-Butylchlorobenzene]	> 90 µM
CCCCCCCCCOC(=O)c1ccccc1C(=O)OCCCCCCCCC [Dinonyl phthalate]	> 90 µM
CC(C)(C)c1cc(/C=C2\SC(N)=NC2=O)cc(C(C)(C)C)c1O [Darbufelone mesylate]	23.6 µM
O=C(O)CC/C=C\CC[C@@H]1[C@@H](N2CCCCC2)[C@@H](O)C[C@@H]1OCc1ccc(-c2ccccc2)cc1 [Vapiprost hydrochloride]	> 50 µM

SMILES	CC50 at 24 h
CC(C)=CCO [3-Methyl-2-buten-1-ol]	> 90 µM
CC(C)[C@H]1CC[C@H](C)C[C@@H]1O [(1S,2R,5S)-(+)-Menthol]	> 90 µM
Brc1nc2ccccc2s1 [2-Bromobenzothiazole]	> 90 µM
CCN(Cc1cccc(S(=O)(=O)O)c1)c1ccccc1 [3-((Ethylphenylamino)methyl)benzenesulfonic acid]	> 90 µM
SCCSCCS [2,2'-Sulfanediyldiethanethiol]	> 90 µM
CC(Cl)(Cl)Cl [1,1,1-Trichloroethane]	> 90 µM
CCCCCCC(O)CCCCCCCCCCC(=O)O (centres unmarked) [12-Hydroxyoctadecanoic acid]	> 90 µM
O=C1CCCN1 [2-Pyrrolidinone]	> 90 µM
CC1CC(O)CC(C)(C)C1 (centres unmarked) [3,3,5-Trimethylcyclohexanol]	> 90 µM
CC(=O)Nc1ccc(N)cc1 [4-Aminoacetanilide]	> 90 µM
Cc1c(C(N)=O)cc([N+](=O)[O-])cc1[N+](=O)[O-] [Zoalene]	> 90 µM
CC(C)c1nc(N(C)S(C)(=O)=O)nc(-c2ccc(F)cc2)c1/C=C/[C@@H](O)C[C@@H](O)CC(=O)O [Rosuvastatin calcium]	> 50 µM
C=C(CC(=O)O)C(=O)O [Methylenebutanedioic acid]	> 90 µM
CCCCCCCCCCCCOCCOCCOCCOCCOCCOCCOCCOCCOCCO [Polyoxyethylene (9) lauryl ether]	9.84 µM
CC(C(=O)O)c1ccc(CC2CCCC2=O)cc1 (centres unmarked) [Loxoprofen]	> 50 µM
O=C(O)CCCCCCCCCCCC(=O)O [Tridecanedioic acid]	> 90 µM
O=C(O[C@H]1C[C@H]2CC[C@@H](C1)[N+]21CCCC1)C(O)(c1ccccc1)c1ccccc1 [Trospium chloride]	> 50 µM
COc1ccc(/C=C/S(=O)(=O)NC(=O)c2ccc(C)cc2Cl)cc1 [PharmaGSID_48514]	> 90 µM
COc1ccccc1OCC(O)COC(N)=O (centres unmarked) [Methocarbamol]	> 20 µM
c1ccc2c(c1)OCC(C1=NCCN1)O2 (centres unmarked) [Idazoxan]	7.8 µM
CC(C)(C)NCC(O)c1cc(O)cc(O)c1 (centres unmarked) [Terbutaline hemisulfate]	> 50 µM
O=C(O)[C@H](CC(=O)N1C[C@H]2CCCC[C@H]2C1)Cc1ccccc1 [Mitiglinide calcium dihydrate]	> 50 µM
CC(C)=CCCC(C)CCOC=O (centres unmarked) [3,7-Dimethyloct-6-en-1-yl formate]	> 90 µM
CCCC[n+]1ccccc1C [1-Butyl-2-methylpyridinium bromide]	> 90 µM

Same assay, conditions: rat, gh3-tre-luc cells, AC50 (uM) modified / 1000, Tox21_110001=Tox21_110628; viability, 1 nM T3 present, 24 h

SMILES	CC50 at 24 h
CCOC(=O)c1cncn1[C@H](C)c1ccccc1 [Etomidate]	> 20 µM

Same assay, conditions: rat, gh3-tre-luc cells, AC50 (uM) modified / 1000, Tox21_110001=Tox21_110973; viability, 1 nM T3 present, 24 h

SMILES	CC50 at 24 h
C[C@H]1CCC[C@H](O)CCCCCc2cc(O)cc(O)c2C(=O)O1 [Zearalanol]	> 50 µM

Same assay, conditions: rat, gh3-tre-luc cells, AC50 (uM) modified / 1000, Tox21_110001=Tox21_111697; viability, 1 nM T3 present, 24 h

SMILES	CC50 at 24 h
CCNC(C)Cc1cccc(C(F)(F)F)c1 (centres unmarked) [Fenfluramine]	> 50 µM

Same assay, conditions: rat, gh3-tre-luc cells, AC50 (uM) modified / 1000, Tox21_110001=Tox21_200821; viability, 1 nM T3 present, 24 h

SMILES	CC50 at 24 h
O=[N+]([O-])c1ccccc1CCl [2-Nitrobenzyl chloride]	> 90 µM

Same assay, conditions: rat, gh3-tre-luc cells, AC50 (uM) modified / 1000, Tox21_110001=Tox21_201203; viability, 1 nM T3 present, 24 h

SMILES	CC50 at 24 h
C[C@H]1CCC[C@H](O)CCCCCc2cc(O)cc(O)c2C(=O)O1 [Zearalanol]	53.6 µM

Same assay, conditions: rat, gh3-tre-luc cells, AC50 (uM) modified / 1000, Tox21_110001=Tox21_300616; viability, 1 nM T3 present, 24 h

SMILES	CC50 at 24 h
O=C(O)C(F)(F)C(F)(F)C(F)(F)C(F)(F)C(F)(F)C(F)(F)F [Perfluoroheptanoic acid]	> 90 µM

Same assay, conditions: rat, gh3-tre-luc cells, AC50 (uM) modified / 1000, Tox21_110001=Tox21_300651; viability, 1 nM T3 present, 24 h

SMILES	CC50 at 24 h
O=C(Nc1ccccc1)Nc1cnns1 [Thidiazuron]	> 90 µM
